Measurements reported in the NIST ThermoML archive (doi:10.1016/j.jct.2013.06.022).
Where “and” joins values, the source holds several entries; their conditions need not be identical. Equal entries are not always repeated.

Key:
[1] = Molar enthalpy of transition or fusion; details: Crystal; DSC
[2] = Crystal; for vapor or sublimation pressure: Calculated from knudsen effusion weight loss; for Normal melting temperature: DTA

COc1ccccc1C(N)=O [2-methoxybenzamide]
Details | Molar enthalpy of transition or fusion [kcal/mol] | Normal melting temperature [°C]
[1] | 6.5 | –
[2] | – | 128.51

[2]
Details | vapor or sublimation pressure
335.12 K | 0.0001 kPa and 0.000101 kPa
337.18 K | 0.000126 kPa and 0.000124 kPa
339.16 K | 0.000155 kPa and 0.000153 kPa
341.12 K | 0.000198 kPa and 0.000195 kPa
343.16 K | 0.000248 kPa and 0.000241 kPa and 0.000249 kPa
345.16 K | 0.000305 kPa and 0.0003 kPa and 0.000309 kPa
347.11 K | 0.000389 kPa and 0.000382 kPa and 0.000385 kPa
349.15 K | 0.000486 kPa and 0.000474 kPa and 0.000483 kPa
351.16 K | 0.000594 kPa and 0.000581 kPa
353.12 K | 0.00075 kPa and 0.000738 kPa and 0.000736 kPa
355.17 K | 0.000924 kPa and 0.000926 kPa and 0.00091 kPa
357.16 K | 0.001122 kPa and 0.001121 kPa and 0.001106 kPa

COc1ccc(C(N)=O)cc1 [4-methoxybenzamide]
Details | Molar enthalpy of transition or fusion [kcal/mol] | Normal melting temperature [°C]
[1] | 6.94 | –
[2] | – | 167.49

[2]
Details | vapor or sublimation pressure
357.12 K | 0.000103 kPa
359.19 K | 0.000128 kPa and 0.000124 kPa
361.16 K | 0.000156 kPa and 0.000154 kPa
363.12 K | 0.000195 kPa and 0.000193 kPa
365.2 K | 0.000242 kPa and 0.000238 kPa
367.16 K | 0.000292 kPa and 0.00029 kPa and 0.000299 kPa
369.12 K | 0.000366 kPa and 0.000368 kPa and 0.000367 kPa
371.18 K | 0.000455 kPa and 0.000442 kPa and 0.000452 kPa
373.15 K | 0.000548 kPa and 0.000535 kPa and 0.000556 kPa
375.11 K | 0.000689 kPa and 0.000681 kPa and 0.000685 kPa
377.18 K | 0.000833 kPa and 0.000838 kPa and 0.000812 kPa
379.15 K | 0.001012 kPa and 0.000985 kPa and 0.000979 kPa

COc1cccc(C(N)=O)c1 [3-methoxybenzamide]
Details | Molar enthalpy of transition or fusion [kcal/mol] | Normal melting temperature [°C]
[1] | 6.84 | –
[2] | – | 134.00

[2]
Details | vapor or sublimation pressure
345.11 K | 7.2e-05 kPa and 7.1e-05 kPa
347.12 K | 9.2e-05 kPa and 8.8e-05 kPa
349.16 K | 0.000112 kPa and 0.000117 kPa
351.12 K | 0.000143 kPa and 0.000142 kPa
353.16 K | 0.00018 kPa and 0.000175 kPa and 0.000178 kPa
355.16 K | 0.000219 kPa and 0.000225 kPa
357.12 K | 0.000283 kPa and 0.000287 kPa and 0.000286 kPa
359.16 K | 0.000357 kPa and 0.000346 kPa
361.14 K | 0.000432 kPa and 0.000428 kPa and 0.000443 kPa
363.13 K | 0.00055 kPa and 0.000547 kPa and 0.000546 kPa
365.17 K | 0.00068 kPa and 0.000682 kPa and 0.000658 kPa
367.13 K | 0.000844 kPa and 0.000848 kPa and 0.000842 kPa
369.17 K | 0.001047 kPa and 0.001014 kPa
371.15 K | 0.001291 kPa and 0.001251 kPa and 0.00125 kPa
